Holding throughout (assay): TR-FRET enzymatic activity assay against PI3K isoforms
Common to all, as to type: biochemical
On the technique in general: Time-resolved FRET reads energy transfer from a long-lived donor to a nearby acceptor.

One experiment has as its target PI3Kβ (Homo sapiens (Human), UniProt P42338). Conditions: PI3Kβ, TR-FRET, 2×Km ATP, 30 minutes at 25° C. The source says: (§1) The compounds of formula (I) were characterized for their enzymatic activity against the PI3K isoforms. […] TR-FRET monitored the formation of 3,4,5-inositol triphosphate molecule that competed with fluorescently labeled PIP3 for binding to the GRP-1 pleckstrin homology domain protein.

The next experiment addresses PI3Kγ (Homo sapiens (Human), UniProt P48736). Conditions: 2×Km ATP, 30 minutes at 25° C.
Description: as §1

A further experiment concerns the target PI3Kδ (Homo sapiens (Human), UniProt O00329). Conditions: 2×Km ATP, 30 minutes at 25° C.
Description: as §1

PI3Kγ, sequence (P48736 whole entry): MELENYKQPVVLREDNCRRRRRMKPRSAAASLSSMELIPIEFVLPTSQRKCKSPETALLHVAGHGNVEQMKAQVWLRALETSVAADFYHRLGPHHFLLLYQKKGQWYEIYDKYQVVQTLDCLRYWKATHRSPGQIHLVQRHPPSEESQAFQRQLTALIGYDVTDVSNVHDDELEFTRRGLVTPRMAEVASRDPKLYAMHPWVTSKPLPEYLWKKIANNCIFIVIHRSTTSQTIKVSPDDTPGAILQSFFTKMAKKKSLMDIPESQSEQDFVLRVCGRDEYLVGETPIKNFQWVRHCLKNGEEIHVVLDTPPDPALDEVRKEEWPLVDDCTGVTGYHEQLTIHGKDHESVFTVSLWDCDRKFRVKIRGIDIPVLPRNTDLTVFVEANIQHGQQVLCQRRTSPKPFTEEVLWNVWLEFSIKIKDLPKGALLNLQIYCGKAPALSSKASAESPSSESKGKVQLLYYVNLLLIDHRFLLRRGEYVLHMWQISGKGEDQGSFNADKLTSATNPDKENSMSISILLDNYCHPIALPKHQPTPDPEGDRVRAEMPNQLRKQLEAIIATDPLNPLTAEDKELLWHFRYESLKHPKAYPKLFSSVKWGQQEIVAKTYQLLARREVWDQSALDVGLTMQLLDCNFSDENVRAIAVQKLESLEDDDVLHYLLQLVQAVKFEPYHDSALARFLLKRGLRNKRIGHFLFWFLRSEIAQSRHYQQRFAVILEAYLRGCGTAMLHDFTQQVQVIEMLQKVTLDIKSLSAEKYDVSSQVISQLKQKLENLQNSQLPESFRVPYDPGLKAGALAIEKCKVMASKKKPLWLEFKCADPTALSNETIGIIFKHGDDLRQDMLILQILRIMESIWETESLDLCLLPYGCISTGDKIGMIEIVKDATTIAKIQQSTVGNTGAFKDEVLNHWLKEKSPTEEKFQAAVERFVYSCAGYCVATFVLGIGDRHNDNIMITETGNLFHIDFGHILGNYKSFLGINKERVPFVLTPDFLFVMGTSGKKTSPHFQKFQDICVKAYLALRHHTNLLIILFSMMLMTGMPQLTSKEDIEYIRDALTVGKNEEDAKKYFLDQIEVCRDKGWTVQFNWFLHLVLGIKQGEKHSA
PI3Kδ, sequence (O00329 whole entry): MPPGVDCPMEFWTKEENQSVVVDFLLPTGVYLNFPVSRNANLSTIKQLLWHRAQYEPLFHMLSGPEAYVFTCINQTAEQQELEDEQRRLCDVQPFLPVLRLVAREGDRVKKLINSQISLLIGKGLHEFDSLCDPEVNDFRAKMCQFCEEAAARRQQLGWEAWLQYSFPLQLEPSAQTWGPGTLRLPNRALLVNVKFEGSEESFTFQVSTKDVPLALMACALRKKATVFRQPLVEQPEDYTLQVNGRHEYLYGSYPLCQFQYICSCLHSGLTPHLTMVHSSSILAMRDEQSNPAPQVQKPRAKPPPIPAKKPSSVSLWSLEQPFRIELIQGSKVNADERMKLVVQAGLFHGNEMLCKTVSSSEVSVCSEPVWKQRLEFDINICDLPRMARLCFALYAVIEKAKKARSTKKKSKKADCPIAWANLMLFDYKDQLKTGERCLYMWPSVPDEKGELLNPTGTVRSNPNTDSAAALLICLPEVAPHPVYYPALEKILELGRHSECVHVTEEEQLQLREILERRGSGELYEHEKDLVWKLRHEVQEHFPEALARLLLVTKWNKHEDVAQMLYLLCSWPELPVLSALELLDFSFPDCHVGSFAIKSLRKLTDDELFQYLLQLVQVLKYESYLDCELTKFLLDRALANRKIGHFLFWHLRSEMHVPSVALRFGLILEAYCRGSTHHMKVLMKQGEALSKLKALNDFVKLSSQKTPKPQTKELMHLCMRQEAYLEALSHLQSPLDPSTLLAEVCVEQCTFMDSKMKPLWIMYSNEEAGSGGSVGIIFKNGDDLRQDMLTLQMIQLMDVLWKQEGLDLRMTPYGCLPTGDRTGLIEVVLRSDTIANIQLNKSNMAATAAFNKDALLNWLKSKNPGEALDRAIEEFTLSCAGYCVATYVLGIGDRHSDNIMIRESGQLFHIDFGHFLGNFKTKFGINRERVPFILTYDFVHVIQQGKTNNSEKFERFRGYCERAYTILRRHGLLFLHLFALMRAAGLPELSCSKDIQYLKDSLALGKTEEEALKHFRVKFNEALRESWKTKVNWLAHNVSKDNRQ
PI3Kδ, sequence (P27986 whole entry partner): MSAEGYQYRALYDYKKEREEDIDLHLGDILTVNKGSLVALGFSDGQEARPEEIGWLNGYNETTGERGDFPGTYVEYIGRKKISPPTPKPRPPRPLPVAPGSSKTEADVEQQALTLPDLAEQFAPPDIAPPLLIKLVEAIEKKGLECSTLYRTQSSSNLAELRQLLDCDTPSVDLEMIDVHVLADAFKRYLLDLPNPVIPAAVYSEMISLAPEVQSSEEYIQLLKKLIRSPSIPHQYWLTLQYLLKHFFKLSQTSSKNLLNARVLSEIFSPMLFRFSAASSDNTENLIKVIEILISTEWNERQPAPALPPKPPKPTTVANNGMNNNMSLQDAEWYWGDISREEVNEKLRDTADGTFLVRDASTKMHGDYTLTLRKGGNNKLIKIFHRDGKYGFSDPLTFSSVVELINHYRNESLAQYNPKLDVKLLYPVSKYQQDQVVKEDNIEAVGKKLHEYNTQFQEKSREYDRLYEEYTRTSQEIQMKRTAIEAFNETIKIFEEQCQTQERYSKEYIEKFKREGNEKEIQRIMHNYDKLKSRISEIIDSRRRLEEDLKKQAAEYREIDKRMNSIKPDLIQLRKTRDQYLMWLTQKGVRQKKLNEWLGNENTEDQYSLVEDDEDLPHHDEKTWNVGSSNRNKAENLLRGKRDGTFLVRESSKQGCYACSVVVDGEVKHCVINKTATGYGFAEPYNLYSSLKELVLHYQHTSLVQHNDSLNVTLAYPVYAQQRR
PI3Kβ, sequence (P42338 whole entry, the tested form may be a part, canonical isoform): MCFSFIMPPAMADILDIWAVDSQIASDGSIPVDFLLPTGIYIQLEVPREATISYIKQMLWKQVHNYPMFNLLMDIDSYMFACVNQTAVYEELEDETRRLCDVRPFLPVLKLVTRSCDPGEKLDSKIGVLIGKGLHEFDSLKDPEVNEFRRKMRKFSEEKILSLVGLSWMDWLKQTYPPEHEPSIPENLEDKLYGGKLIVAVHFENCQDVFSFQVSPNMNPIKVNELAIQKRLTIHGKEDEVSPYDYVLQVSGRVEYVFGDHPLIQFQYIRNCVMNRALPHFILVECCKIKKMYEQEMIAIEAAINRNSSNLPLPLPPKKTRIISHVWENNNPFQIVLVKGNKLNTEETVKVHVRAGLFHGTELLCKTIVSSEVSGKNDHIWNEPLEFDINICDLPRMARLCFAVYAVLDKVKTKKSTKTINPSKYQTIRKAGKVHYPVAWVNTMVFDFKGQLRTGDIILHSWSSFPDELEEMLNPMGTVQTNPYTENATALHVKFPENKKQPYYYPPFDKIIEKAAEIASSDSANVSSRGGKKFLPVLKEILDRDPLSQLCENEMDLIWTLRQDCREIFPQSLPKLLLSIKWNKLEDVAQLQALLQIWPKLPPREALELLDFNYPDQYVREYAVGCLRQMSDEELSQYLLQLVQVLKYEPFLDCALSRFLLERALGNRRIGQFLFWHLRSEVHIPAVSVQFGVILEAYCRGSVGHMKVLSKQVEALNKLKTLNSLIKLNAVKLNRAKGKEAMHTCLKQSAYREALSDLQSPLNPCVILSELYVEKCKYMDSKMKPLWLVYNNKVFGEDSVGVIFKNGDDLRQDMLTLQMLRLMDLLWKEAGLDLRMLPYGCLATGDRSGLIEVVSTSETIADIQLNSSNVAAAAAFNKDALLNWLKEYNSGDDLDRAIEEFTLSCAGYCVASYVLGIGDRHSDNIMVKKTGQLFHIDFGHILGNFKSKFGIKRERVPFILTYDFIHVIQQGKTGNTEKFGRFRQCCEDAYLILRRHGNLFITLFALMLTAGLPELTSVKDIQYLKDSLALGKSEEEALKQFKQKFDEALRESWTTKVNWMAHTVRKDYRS
PI3Kβ, sequence (P27986 whole entry partner, the tested form may be a part, canonical isoform): as the sequence (P27986 whole entry partner) above

On to `N#CCCCn1c([C@@H](Nc2nc(N)nc(N)c2C#N)C2CC2)nc2cccc(Cl)c2c1=O` [Compound 113, (S)-2,4-diamino-6-(((5-chloro-3-(3-cyanopropyl)-4-oxo-3,4-dihydroquinazolin-2-yl)(cyclopropyl)methyl)amino)pyrimidine-5-carbonitrile], for which the IC50 (commonly the concentration at which inhibition is half-maximal) came to 17 nM at PI3Kβ, 59 nM against PI3Kγ and 1 nM at PI3Kδ.

As to `N#CCCCCn1c([C@@H](Nc2nc(N)nc(N)c2C#N)C2CC2)nc2cccc(Cl)c2c1=O` [Compound 114, (S)-2,4-diamino-6-(((5-chloro-3-(4-cyanobutyl)-4-oxo-3,4-dihydroquinazolin-2-yl)(cyclopropyl)methyl)amino)pyrimidine-5-carbonitrile], the half-maximal inhibitory concentration (IC50) on PI3Kβ came out at 12 nM; against PI3Kγ, 130 nM; at PI3Kδ, 0.8 nM.

Take `CC[C@H](Nc1nc(N)nc(N)c1C#N)c1nc2cccc(Cl)c2c(=O)n1CCCC#N` [Compound 115, (S)-2,4-diamino-6-((1-(5-chloro-3-(3-cyanopropyl)-4-oxo-3,4-dihydroquinazolin-2-yl)propyl)amino)pyrimidine-5-carbonitrile]: the IC50 on PI3Kβ turned out to be 190 nM; at PI3Kγ, 190 nM; at PI3Kδ, 9 nM.

In the case of `CC[C@H](Nc1nc(N)nc(N)c1C#N)c1nc2cccc(Cl)c2c(=O)n1CCCCC#N` [Compound 116, (S)-2,4-diamino-6-((1-(5-chloro-3-(4-cyanobutyl)-4-oxo-3,4-dihydroquinazolin-2-yl)propyl)amino)pyrimidine-5-carbonitrile], the IC50 at PI3Kβ is 150 nM; against PI3Kγ it was 540 nM; at PI3Kδ, 5 nM.

For the molecule `CC[C@H](Nc1nc(N)nc(N)c1C#N)c1nc2cccc(Cl)c2c(=O)n1CCCS(C)(=O)=O` [Compound 117, (S)-2,4-diamino-6-((1-(5-chloro-3-(3-(methylsulfonyl)propyl)-4-oxo-3,4-dihydroquinazolin-2-yl)propyl)amino)pyrimidine-5-carbonitrile], the IC50 at PI3Kβ is 250 nM; at PI3Kγ, 3000 nM; against PI3Kδ, 21 nM.

Regarding `CS(=O)(=O)CCCn1c([C@@H](Nc2nc(N)nc(N)c2C#N)C2CC2)nc2cccc(Cl)c2c1=O` [Compound 118, (S)-2,4-diamino-6-(((5-chloro-3-(3-(methylsulfonyl)propyl)-4-oxo-3,4-dihydroquinazolin-2-yl)(cyclopropyl)methyl)amino)pyrimidine-5-carbonitrile], the values for the half-inhibitory concentration (IC50) at PI3Kβ, on PI3Kγ and against PI3Kδ were 13 nM, 570 nM and 2 nM, respectively.

Regarding `CS(=O)(=O)CCCn1c([C@@H](Nc2nc(N)nc(N)c2C#N)C2CC2)nc2c(Cl)ccc(Cl)c2c1=O` [Compound 119, (S)-2,4-diamino-6-((cyclopropyl(5,8-dichloro-3-(3-(methylsulfonyl)propyl)-4-oxo-3,4-dihydroquinazolin-2-yl)methyl)amino)pyrimidine-5-carbonitrile], the IC50 is 8 nM against PI3Kβ, 1100 nM against PI3Kγ and 2 nM against PI3Kδ.

As for `CS(=O)(=O)CCCn1c([C@@H](Nc2nc(N)nc(N)c2C#N)C2CC2)nc2c(Cl)cc(F)cc2c1=O` [Compound 120, (S)-2,4-diamino-6-(((8-chloro-6-fluoro-3-(3-(methylsulfonyl)propyl)-4-oxo-3,4-dihydroquinazolin-2-yl)(cyclopropyl)methyl)amino)pyrimidine-5-carbonitrile], the 50% inhibitory concentration (IC50) against PI3Kβ was 30 nM; on PI3Kγ it was 1900 nM; at PI3Kδ, 8 nM.

`N#Cc1c(N)nc(N)nc1N[C@H](c1nc2c(Cl)cc(F)cc2c(=O)n1CCCC(N)=O)C1CC1` [Compound 121, (S)-4-(8-chloro-2-(cyclopropyl((2,6-diamino-5-cyanopyrimidin-4-yl)amino)methyl)-6-fluoro-4-oxoquinazolin-3(4H)-yl)butanamide]: the values for the IC50 against PI3Kβ, against PI3Kγ and at PI3Kδ were 9 nM, 760 nM and 2 nM, respectively.

Consider `CS(=O)(=O)CCCCn1c([C@@H](Nc2nc(N)nc(N)c2C#N)C2CC2)nc2cccc(Cl)c2c1=O` [Compound 122, (S)-2,4-diamino-6-(((5-chloro-3-(4-(methylsulfonyl)butyl)-4-oxo-3,4-dihydroquinazolin-2-yl)(cyclopropyl)methyl)amino)pyrimidine-5-carbonitrile], for which the IC50 at PI3Kβ was found to be 23 nM; on PI3Kγ it was 120 nM; on PI3Kδ, 0.7 nM.

Regarding `C[C@H](Nc1nc(N)nc(N)c1C#N)c1nc2cccc(Cl)c2c(=O)n1C[C@H]1CCNC1` [Compound 125, 2,4-diamino-6-(((S)-1-(5-chloro-4-oxo-3-((S)-pyrrolidin-3-ylmethyl)-3,4-dihydroquinazolin-2-yl)ethyl)amino)pyrimidine-5-carbonitrile], the IC50 is 49 nM at PI3Kβ, 2300 nM against PI3Kγ and 3 nM against PI3Kδ.

For the molecule `C[C@H](Nc1nc(N)nc(N)c1C#N)c1nc2cccc(Cl)c2c(=O)n1C[C@@H]1CCNC1` [Compound 126, 2,4-diamino-6-(((S)-1-(5-chloro-4-oxo-3-((R)-pyrrolidin-3-ylmethyl)-3,4-dihydroquinazolin-2-yl)ethyl)amino)pyrimidine-5-carbonitrile], the half-maximal inhibitory concentration (IC50) worked out at 24 nM on PI3Kβ, 2500 nM at PI3Kγ and 0.9 nM on PI3Kδ.

Consider `C[C@H](Nc1nc(N)nc(N)c1C#N)c1nc2cccc(Cl)c2c(=O)n1CCCN1CCOCC1` [Compound 127, (S)-2,4-diamino-6-((1-(5-chloro-3-(3-morpholinopropyl)-4-oxo-3,4-dihydroquinazolin-2-yl)ethyl)amino)pyrimidine-5-carbonitrile], for which the IC50 against PI3Kβ is 130 nM; against PI3Kγ it was 720 nM; at PI3Kδ, 2 nM.

In the case of `C[C@H](Nc1nc(N)nc(N)c1C#N)c1nc2cccc(Cl)c2c(=O)n1CCC(=O)N(C)C` [Compound 128, (S)-3-(5-chloro-2-(1-((2,6-diamino-5-cyanopyrimidin-4-yl)amino)ethyl)-4-oxoquinazolin-3(4H)-yl)-N,N-dimethylpropanamide], the concentration for half-maximal inhibition (IC50) came to 530 nM on PI3Kβ, 280 nM on PI3Kγ and 15 nM against PI3Kδ.

`COC(C)(C)CCn1c([C@H](C)Nc2nc(N)nc(N)c2C#N)nc2cccc(Cl)c2c1=O` [Compound 129, (S)-2,4-diamino-6-((1-(5-chloro-3-(3-methoxy-3-methylbutyl)-4-oxo-3,4-dihydroquinazolin-2-yl)ethyl)amino)pyrimidine-5-carbonitrile]: the IC50 against PI3Kβ came out at 290 nM; on PI3Kγ, 530 nM; against PI3Kδ, 2 nM.

Regarding `CCOCCn1c([C@H](C)Nc2nc(N)nc(N)c2C#N)nc2cccc(Cl)c2c1=O` [Compound 130, (S)-2,4-diamino-6-((1-(5-chloro-3-(2-ethoxyethyl)-4-oxo-3,4-dihydroquinazolin-2-yl)ethyl)amino)pyrimidine-5-carbonitrile], the values for the IC50 on PI3Kβ, on PI3Kγ and against PI3Kδ were 120 nM, 410 nM and 3 nM, respectively.

Take `COCC(COC)n1c([C@H](C)Nc2nc(N)nc(N)c2C#N)nc2cccc(Cl)c2c1=O` [Compound 131, (S)-2,4-diamino-6-((1-(5-chloro-3-(1,3-dimethoxypropan-2-yl)-4-oxo-3,4-dihydroquinazolin-2-yl)ethyl)amino)pyrimidine-5-carbonitrile]: the results for the IC50 against PI3Kβ, on PI3Kγ and on PI3Kδ were 210 nM, 1400 nM and 13 nM, respectively.

Take `COC[C@H](C)n1c([C@H](C)Nc2nc(N)nc(N)c2C#N)nc2cccc(Cl)c2c1=O` [Compound 132, 2,4-diamino-6-(((S)-1-(5-chloro-3-((S)-1-methoxypropan-2-yl)-4-oxo-3,4-dihydroquinazolin-2-yl)ethyl)amino)pyrimidine-5-carbonitrile]: the half-inhibitory concentration (IC50) against PI3Kβ was found to be 58 nM; against PI3Kγ, 330 nM; on PI3Kδ, 2 nM.

As to `C[C@H](Nc1ncnc(N)c1C#N)c1nc2cccc(Cl)c2c(=O)n1CCCN1CCCCC1` [Compound 134, (S)-4-amino-6-((1-(5-chloro-4-oxo-3-(3-(piperidin-1-yl)propyl)-3,4-dihydroquinazolin-2-yl)ethyl)amino)pyrimidine-5-carbonitrile], the figures for the IC50 at PI3Kβ, against PI3Kγ and on PI3Kδ were 550 nM, no less than 10000 nM and 4 nM, respectively.

`C[C@H](Nc1ncnc(N)c1C#N)c1nc2cccc(Cl)c2c(=O)n1CCCN1CCN(C)CC1` [Compound 135, (S)-4-amino-6-((1-(5-chloro-3-(3-(4-methylpiperazin-1-yl)propyl)-4-oxo-3,4-dihydroquinazolin-2-yl)ethyl)amino)pyrimidine-5-carbonitrile]: the 50% inhibitory concentration (IC50) is 640 nM at PI3Kβ, no less than 10000 nM at PI3Kγ and 6 nM against PI3Kδ.

As to `C[C@H](Nc1ncnc(N)c1C#N)c1nc2cccc(Cl)c2c(=O)n1CCN1CCCC1` [Compound 136, (S)-4-amino-6-((1-(5-chloro-4-oxo-3-(2-(pyrrolidin-1-yl)ethyl)-3,4-dihydroquinazolin-2-yl)ethyl)amino)pyrimidine-5-carbonitrile], the concentration for half-maximal inhibition (IC50) was 990 nM against PI3Kβ, no less than 10000 nM on PI3Kγ and 25 nM against PI3Kδ.

As for `C[C@H](Nc1nc(N)nc(N)c1C#N)c1nc2cccc(Cl)c2c(=O)n1CCN1CCCC1` [Compound 137, (S)-2,4-diamino-6-((1-(5-chloro-4-oxo-3-(2-(pyrrolidin-1-yl)ethyl)-3,4-dihydroquinazolin-2-yl)ethyl)amino)pyrimidine-5-carbonitrile], the IC50 is 760 nM against PI3Kβ, no less than 10000 nM on PI3Kγ and 27 nM against PI3Kδ.

For the molecule `C[C@H](Nc1nc(N)nc(N)c1C#N)c1nc2cccc(Cl)c2c(=O)n1CCc1ccn[nH]1` [Compound 140, (S)-4-((1-(3-(2-(1H-pyrazol-5-yl)ethyl)-5-chloro-4-oxo-3,4-dihydroquinazolin-2-yl)ethyl)amino)-2,6-diaminopyrimidine-5-carbonitrile], the IC50 against PI3Kβ turned out to be 410 nM; against PI3Kγ, 590 nM; against PI3Kδ it was 6 nM.
